From patent US20090105172A1, “Stabilized Aptamers to PSMA and Their Use as Prostate Cancer Therapeutics” (priority 2005, published 2009)
Strand notation (5' to 3'): a small letter for the sugar, then the base; units joined by * are phosphorothioate-linked, units joined directly phosphodiester-linked; [ ] holds rarer units or linkages, { } end groups; capitals alone tell only the bases. {NH2} = amine modification, hexylamine terminal group for chemical coupling; {C6-FAM} = fluorescein label attached via 5'-amine; [invdT] = inverted (3'-3') thymidine; m = 2'-O-methyl; r = 2'-OH (RNA); f = 2'-fluoro

Columns and labels:
[1] = tested on: LNCaP cells; experiment: Cell proliferation assay (BrdU ELISA), targeted killing; format: cell-based; details: for effect on LNCaP cell viability: entire concentration range
Protocol: Effects on LNCaP cell viability were assessed in a cell proliferation assay based on chemiluminescent detection of BrdU described below (Cell Proliferation ELISA, BrdU (Roche, Indianapolis, Ind.). PC-3 cells were used as a control cell line.
Media from LNCaP (PSMA+) or PC3 (PSMA−) cells growing in 15 cm plates was aspirated off then cells were washed with 10 mL 1×PBS. Cells were trypsinized for 30 sec at 37° C. Following trypsinization, 8 mL 10% FBS media was used to quench trypsin. […] Following spin the media was aspirated off and the cell pellet was re-suspended with 10 mL complete media. The cell density was adjusted to 200,000 cells/mL. 50 μl of cells/well was added to collagen coated black 96-well plates (10,000 cells/well). […] Following overnight incubation 25 μl of media, aptamer or antibody was added to each well with the final volume in the well being 100 μl and incubated at 37° C. in 5% CO2 for designated time length. […] After 2 days 20 μl BrdU labeling reagent (100×) is mixed with 2 mL of complete media. […] After incubation, the media was removed, and the assay was completed following the manufacturer's protocol: 200 μl/well FixDenat solution was added to each well and incubated for 30 min at RT. Following removal of FixDenat solution 100 μl anti-BrdU POD Fab fragment solution (Luminol/4-iodophenol) was added to each well and incubated for 90 min at RT. After incubation anti-BrdU POD solution was removed and plates were washed with 200 μl/well of washing solution three times with 5 min RT incubations. 100 μl of substrate solution was added to each well and cells were incubated for 3 min at RT in the dark. The plates were read using a luminescence program with a 1 sec count on a Packard TopCount Microplate Scintillation and Luminescence Counter.

[2] = tested on: LNCaP cells (PSMA+); experiment: LNCaP FACS binding assay with fluorescein-labeled aptamers; format: cell-based; details: FACS analysis; scrambled A9 negative control
Protocol: To prepare aptamers for the FACS assay, PSMA aptamers were serially diluted (0-1 uM) in FACS buffer (1×DPBS w/Ca^++/Mg^++ (Gibco, Carlsbad, Calif.) supplemented with 10 mg/mL salmon sperm DNA & 0.2% Na Azide), in a V-bottom 96 well plate, at the concentrations to be tested. LNCaP and PC-3 cells (ATCC, Manassas, Va.) were harvested with trypsin, and 200,000 cells/well were counted, washed once with 1×DPBS (with Ca^++ and Mg^+) and resuspended in 200 μl of FACS Buffer. The 200 μl of cells in FACS buffer were added to individual wells of a new 96 well plate, pelleted by centrifugation (1300 rpm for 5 minutes), and resuspended in 100 μl of the appropriate concentration of diluted aptamer. FACS buffer, a-PSMA antibody (3C6) (Northwest Biotherapeutics, Bothell, Wash., Cat #: 60-5002) and an irrelevant fluorescein isothiocyanate (“FITC”) mouse IgG1 isotype control antibody (BD Pharmingen, San Diego, Calif., Cat#: 554679) were used as controls. The wells of aptamer/cell mixture were incubated at room temperature for 20-30 minutes.
After incubation, 180 μl of FACS buffer (plus 10 mg/mL ssDNA, and 0.2% Na Azide) was added to each well to quench the reaction and cells were pelleted by centrifugation.
Anti-fluorescein/Oregon Green®, rabbit IgG fraction, Alexa Fluor® 488 conjugate (Molecular Probes, Eugene, Oreg., Cat#: A11090) was diluted 1:100 in FACS buffer (100 μl/well) as the secondary antibody for the aptamer-FITC conjugates and FITC-mouse IgG isotype control. FITC Rat anti-mouse IgG1 (A85-1) (BD Pharmingen, San Diego, Calif., Cat#: 553443) was diluted in 1:100 in FACS Buffer as the secondary for the α-PSMA antibody. After centrifugation, the cell pellets were resuspended in 100 μl of the appropriate diluted secondary antibody, and incubated 10 minutes at room temperature. After incubation, 180 μl of FACS buffer was added to each well to quench the reaction, and cells were pelleted by centrifugation.
A tertiary antibody which recognizes the Alexa Fluor® 488 goat anti-rabbit IgG was prepared to further amplify the Alexa Fluor signal. Alexa Fluor® 488 goat anti-rabbit IgG (H+ L) (Molecular Probes, Eugene, Oreg., Cat#: A11034) was diluted 1:100 in FACS buffer, and the pelleted cells were resupsended in 100 μl of the tertiary antibody and incubated for 10 minutes at room temperature. […]
Cell samples were analyzed on a FACS Scan machine (Becton Dickinson, San Jose, Calif.) under the following parameters: FSC/SSC, FL-1/FSC, FL-3/FSC. The unstained and/or isotype controls were used to establish gating parameters, and the data was analyzed using Cell Quest Pro software version 5.1.1 (Becton Dickinson Immunocytometry Systems, San Jose, Calif.).

[3] = target: T1, ECD PSMA (Homo sapiens, UniProt Q04609); experiment: Dot blot binding assay (nitrocellulose filter) with purified ECD PSMA; details: Round 9 PSMA rGmH clones; 8 point PSMA titration, without tRNA
T1 construct: vector-derived N-terminal linker […]; made in house; host or cells: 293 Freestyle cells, pSecTag2B vector
T1 sequence (Q04609 with tags, fused parts or gaps): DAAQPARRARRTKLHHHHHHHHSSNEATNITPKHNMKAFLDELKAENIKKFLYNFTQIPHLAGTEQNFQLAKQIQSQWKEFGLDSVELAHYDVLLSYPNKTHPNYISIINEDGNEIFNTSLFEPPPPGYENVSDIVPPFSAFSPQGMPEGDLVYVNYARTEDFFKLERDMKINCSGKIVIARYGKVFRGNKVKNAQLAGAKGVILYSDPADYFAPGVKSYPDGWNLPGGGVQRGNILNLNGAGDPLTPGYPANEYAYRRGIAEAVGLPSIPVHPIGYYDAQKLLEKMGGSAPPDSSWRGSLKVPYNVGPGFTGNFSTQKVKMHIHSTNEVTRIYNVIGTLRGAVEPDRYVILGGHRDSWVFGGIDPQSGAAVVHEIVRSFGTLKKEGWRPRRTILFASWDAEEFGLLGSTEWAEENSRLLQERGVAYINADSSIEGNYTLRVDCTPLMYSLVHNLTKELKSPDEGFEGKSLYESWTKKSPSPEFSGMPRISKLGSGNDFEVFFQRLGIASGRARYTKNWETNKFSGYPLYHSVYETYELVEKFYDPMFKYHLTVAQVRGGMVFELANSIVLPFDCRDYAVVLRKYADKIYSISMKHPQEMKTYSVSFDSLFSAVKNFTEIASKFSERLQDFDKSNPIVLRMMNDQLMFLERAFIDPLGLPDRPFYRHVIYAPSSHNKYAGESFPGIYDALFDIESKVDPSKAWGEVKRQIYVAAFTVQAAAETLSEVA
Text: Protein Purification of ECD of PSMA: An I.M.A.G.E. clone (5202715) encoding full length recombinant human PSMA was purchased from Open Biosystems (Clone EHS1001-18533, Huntsville, Ala.). PCR was used to amplify the extracellular portion of the full length clone. An oligo with an N-terminal histidine tag was designed to engineer a construct which lacks the transmembrane domain residues 1-44. The his-tagged extracellular domain (ECD) was subcloned into the pSecTag2B expression vector (Invitrogen, Carlsbad, Calif.). The ECD of PSMA was purified in house from transfected 293 Freestyle cells (ATCC, Manassas, Va.). The amino acid sequence of the expressed protein comprising an N-terminal linker sequence of […] followed by eight Histidines is listed below: […] VSDr[…]a[…]r[…]rYV […] (SEQ ID NO 5)
Dot Blot Binding Analysis. Dot blot binding assays were performed throughout the selections to monitor the protein binding affinity of the pools. For initial pool screening, trace ^32P-labeled pool RNA was combined with PSMA and incubated at room temperature for 30 min in 1×SHMCK buffer pH 7.4 (20 mM Hepes pH 7.4, 120 mM NaCl, 5 mM KCl, 1 mM MgCl2, 1 mM CaCl2) plus 0.1 mg/mL tRNA in a final volume of 30 μl. The mixture was applied to a dot blot apparatus (Schleicher and Schuell Minifold-1 Dot Blot, Acrylic, Keene, N.H.), assembled (from top to bottom) with nitrocellulose, nylon, and gel blot membranes. RNA that is bound to protein is captured on the nitrocellulose filter; whereas the non-protein bound RNA is captured on the nylon filter. […] The Round 9 pool was cloned and screened in a single point dot blot assay using 100 nM PSMA (0 nM PSMA was used as a negative control). Clone transcripts were 5′ end labeled with ^32-P ATP. Likely binders were than assayed for KD determination by the blot assay conditions described directly above, but without tRNA, using an 8 point PSMA titration with a constant RNA concentration. […] Both of the clones screened were unique sequences in the Round 9 selection pool.
In order to identify the core structural elements required for ARC955 binding to PSMA, the 3′-boundaries of the clone was determined through alkaline hydrolysis. The parent RNA transcript was labeled at the 5′-end with γ-^32P ATP and T4 polynucleotide kinase. Radiolabeled ligands were subjected to partial alkaline hydrolysis and then selectively bound in solution to ECD PSMA (purified in house) at 100 nM before being passed through nitrocellulose filters (Centrex MF 1.5 mL, 0.45 μm, Schleicher & Schuell, Keene N.H.). Retained oligonucleotides were resolved on 8% denaturing polyacrylamide gels. The smallest oligonucleotide bound to PSMA defined the 3′-boundary. On the basis of the boundary experiments as well as visual inspection of predicted folds, truncated constructs were synthesized. Clones were then assayed by dot blot as previously described to determine their KD. […] The binding curve for ARC1091 in the dot blot assay is depicted in FIG. 5A, and the predicted secondary structure of ARC1091 is depicted in FIG. 5B. The KD and maximum % bound for the 3 minimized constructs with the overall highest PSMA affinity, as determined by a dot blot binding assay, are listed in Table 4. For the minimized rGmH aptamers described in Table 5 below, the guanosine triphosphates are 2′-OH and the adenosines triphosphates, cytidine triphosphates and uridine triphosphates are 2′-OMe. Unless noted otherwise, the individual sequences are represented in the 5′ to 3′ orientation. In some embodiments, the invention comprises aptamers with a nucleic acid sequence as described in Table 4 below. In some embodiments, the nucleic acid sequence of an aptamer described in Table 4 below additionally comprises a 3′ cap (e.g., an inverted dT cap), and/or 5′ amine (NH2) modification to facilitate chemical coupling, and/or conjugation to a high molecular weight, non-immunogenic compound (e.g., PEG). […]

[4] = Plasma stability time course assay; format: in vitro ADME; details: 95% human plasma, 37° C.
Protocol: Plasma stability of each construct was measured using a plasma stability time course assay over 0, 1, 3, 10, 30, and 100 hours. A reaction was set up for each aptamer tested in an eppendorf tube using 95% human plasma (20 μl per time point), an appropriate concentration of aptamer (determined by the highest predicted dosing level (CMax)), and a sufficient amount of spiked 5′-end labeled aptamer such that a 1:10 dilution of the reaction will be over 1000 cpm, brought to total volume with 1×PBS. When assembling the reaction, the plasma was added last, and the reactions were immediately added to a 37° C. heat block. A reaction for each aptamer tested containing 1×PBS instead of plasma was used as a 0 hour time point. At each designated time point, 20 μl was withdrawn from each reaction and added to an appropriately labeled eppendorf tube containing 200 μl of formamide loading dye, and was immediately snap frozen in liquid nitrogen and stored at −20° C. After all the samples were collected 20 μl of each plasma sample/loading dye was aliquoted into separate tubes, and 2 μl of 1% SDS was added to each tube (final SDS concentration 0.1%). The samples containing 0.1% SDS were heated at 90° C. for 10-15 minutes. […]
The percentage of the parent aptamer remaining for each time-point was determined by quantifying the parent aptamer band and dividing by the total counts in the lane. […]

Row | Molecule | competition with fluorescently labeled anti-PSMA antibody for binding to the surface of LNCaP cells [2] | effect on LNCaP cell viability [1] | also measured
1 | O=c1c(-c2ccc(O)cc2)coc2cc(O)cc(O)c12 [Genistein, reference compound] | – | – | effect in cytotoxicity assays at 25 μM ([1]; positive control, 25 μM): partial inhibition; effect in cytotoxicity assays at 150 μM ([1]; positive control, 150 μM): complete cell killing
2 | c6 fam-mCmGmGmAfCfCmGAAAAmAmGmAmCfCfUGAfCfUfUfCfUAfUAfCfUAAmGmUmCmUAfCmGfUmUmCmCmG-3T (CGGACCGAAAAAGACCUGACUUCUAUACUAAGUCUACGUUCCG; sugars from the 5' end mmmmffmrrrrmmmmffrrfffffrfrffrrmmmmrfmfmmmm, [invdT] at 3' end, 5' {C6-FAM}, backbone not given here) [ARC711, fluorescently labeled A9 minimer] | effectively competes | – | –
3 | UAAUACGACUCACUAUAGGGAGAGGAGAGAACGUUCUACUAUGGGUGGCUGGGAGGGGAAGAGGGAGUAGGUCGAUCGAUCGAUCAUCGAUG [ARC955] | – | no intrinsic effect on cell viability | Kd [3]: 9 nM
4 | C6 FAM-GGAGGACCGAAAAAGACCUGACUUCUAUACUAAGUCUACGUUCCUCC-3T (2'-fluoro at CU, RNA at AG, [invdT] at 3' end, 5' {C6-FAM}, backbone not given here) [ARC710, fluorescently labeled A9 minimer] | effectively competes | – | –
5 | mCmGmGmAfCfCmGAAAAmAmGmAmCfCfUGAfCfUfUfCfUAfUAfCfUAAmGmUmCmUAfCmGfUmUmCmCmG-3T (CGGACCGAAAAAGACCUGACUUCUAUACUAAGUCUACGUUCCG; sugars from the 5' end mmmmffmrrrrmmmmffrrfffffrfrffrrmmmmrfmfmmmm, [invdT] at 3' end, backbone not given here) [ARC942, minimized A9 aptamer] | – | no intrinsic effect on cell viability | –
6 | NH2-mCmGmGmAfCfCmGAAfCAmAmGmGmCfCfUGAfCfUfUfCfUAfUAfCfUAAmGmCmCmUAfCmGfUmUmCmCmG-3T ({NH2}-mCmGmGmAfCfCmGrArAfCrAmAmGmGmCfCfUrGrAfCfUfUfCfUrAfUrAfCfUrArAmGmCmCmUrAfCmGfUmUmCmCmG[invdT]; further chemistry not fully specified) [ARC1113, ribo-containing aptamer based on ARC 591 with fully-stabilized helical stems and a 3′-cap] | – | – | half life (T1/2) in plasma [4]: 20 h
